Data as given in article PMC6150365, “Simultaneous Determination of Seven Components in Rat Plasma by the UPLC-MS/MS Method and Application of Pharmacokinetic Studies to SimiaoYong’an Decoction” (Molecules : A Journal of Synthetic Chemistry and Natural …, 2017).

Assay: Pharmacokinetic study in rats after oral administration of SYD extract and its single and combined TCM extracts (UPLC-MS/MS of plasma)
Details: for MRT last: MRT(0–t); for MRT inf: MRT(0–∞); for half-life: t1/2, rat plasma
[1] = male, Sprague-Dawley, rat, plasma, po, 0.68 g/kg, rat plasma, oral GU extract 0.68 g/kg, n = 6
[2] = male, Sprague-Dawley, rat, plasma, po, 2.14 g·kg^−1 (extract), rat plasma, oral LJ + GU extract, n = 6
[3] = male, Sprague-Dawley, rat, plasma, po, 2.43 g/kg, rat plasma, oral AS + GU extract 2.43 g/kg, n = 6
[4] = male, Sprague-Dawley, rat, plasma, po, 3.38 g/kg extract (6.67 g/kg as herbs), rat plasma, oral SN + GU extract, n = 6
[5] = male, Sprague-Dawley, rat, plasma, po, 4.01 g·kg^−1 (extract), rat plasma, oral LJ + AS + GU extract, n = 6
[6] = male, Sprague-Dawley, rat, plasma, po, 4.73 g/kg, rat plasma, oral LJ + SN + GU extract 4.73 g/kg, n = 6
[7] = male, Sprague-Dawley, rat, plasma, po, 8.25 g/kg, rat plasma, oral SYD extract 8.25 g/kg, n = 6

Procedure: Pieces of LJ, SN, AS and GU were weighed according to the proportion of 3:3:2:1 with appropriate amounts. The mixed pieces were crushed and decocted two times (60 min each time) with water (1:10 w/v) after being soaked for 60 min. The decoctions were then combined and condensed to the concentration of 0.5 g/mL, after which 95% ethanol was slowly added to the concentrate until a final ethanol concentration of 70% was reached. The SYD solution was set at room temperature overnight and then was filtered. The solvent was recovered, and the residue was dried under reduced pressure. A certain amount of the water extract of SYD was weighed and then dissolved with purified water for intragastric (oral) administration solution. The single herbs and different combination groups such as LJ, SN, AS, GU, LJ + SN, LJ + AS, LJ + GU, SN + AS, SN + GU, AS + GU, LJ + SN + AS, LJ + SN + GU, LJ + AS + GU and SN + AS + GU were prepared according to the procedure of SYD.
Male Sprague-Dawley (SD) rats (body weight 250 ± 10 g) were supplied by the SPF (Beijing) Biotechnology Co., Ltd. (Certificate No.: SCXK 2016-0002, Beijing, China). The animals were maintained in controlled conditions (temperature 20–25 °C, relative humidity 55–60% and 12-h light/12-h dark cycle) with free access to standard laboratory food and water for seven days of acclimation and then fasted for 12 h before each experiment but allowed to drink freely during this time.
Ninety male SD rats were randomly separated into 15 groups and administered a dosage of extract via gastric gavage once per day; detailed information about the oral daily dose of SYD extract and the corresponding single and combined TCMs (LJ, SN, AS, GU, LJ + SN, LJ + AS, LJ + GU, SN + AS, SN + GU, AS + GU, LJ + SN + AS, LJ + SN + GU, LJ + AS + GU, SN + AS + GU and SYD) is listed in Table 4.
Each plasma sample (200 μL) with 50 μL IS solution added was spiked into 100 μL 1% formic acid distilled water solution and then vortexed for 1 min. Protein was precipitated by adding 600 μL of methanol to the mixture. After being vortexed and sonicated, the samples were centrifuged at 25,000 r/min, 4 °C for 10 min. The supernatant of each sample was transferred to a new 2-mL centrifuge tube and evaporated to dryness by N2 at 40 °C. Finally, the residue was dissolved in 100 μL methanol–water (1:1, v/v), followed by centrifugation at 30,000 r/min, 4 °C for 10 min, and 10-μL supernatant aliquots were injected into the UPLC-MS/MS system for analysis.
The SYD was decomposed into 15 groups of compatibility combinations (LJ, SN, AS, GU, LJ + SN, LJ + AS, LJ + GU, SN + AS, SN + GU, AS + GU, LJ + SN + AS, LJ + SN + GU, LJ + AS + GU, SN + AS + GU and SYD). The 15 combinations were weighed according to the proportion of 3:3:2:1 with appropriate amounts and prepared by the method described in “Section 3.2”. Six male SD rats (body weight 250 ± 10 g) of each compatibility group were used in the pharmacokinetic study. After 12-h fast, rats of the different groups were orally administered the respective extract dissolved in saline (Table 4). Venous blood (0.45 mL) was obtained from the orbit vein and collected in heparin-pretreated polypropylene centrifuge tubes at 0.083 h, 0.17 h, 0.25 h, 0.50 h, 0.75 h, 1.0 h, 1.5 h, 2.0 h, 3.0 h, 4.0 h, 6.0 h, 8.0, 12 h and 24 h post-dose. The plasma was separated by centrifugation at 8000 r/min for 10 min and then stored at −20 °C until analysis. The amount of each analyte in the plasma was estimated by UPLC-MS/MS analysis as described in Section 3.5.
Non-compartmental methods using Phoenix WinNonlin 7.0 software provided by the Beijing University of Chinese Medicine were used to analyze plasma concentration versus time profiles and to estimate the following pharmacokinetic parameters: terminal elimination half-lives (t1/2), area under the plasma concentration versus time curve from zero to last sampling time (AUC), and the mean residence time (MRT).

O=C1C[C@@H](c2ccc(O[C@@H]3O[C@H](CO)[C@@H](O)[C@H](O)[C@H]3O)cc2)Oc2cc(O)ccc21 [Liquiritin, liquiritin]
AUC(0-t) [1]: 190 ng·h/mL
AUC(0-inf) (male, Sprague-Dawley, rat, plasma, po, 0.68 g/kg, AUC(0–∞), rat plasma, oral GU extract 0.68 g/kg, n = 6): 190 ng·h/mL
Cmax (male, Sprague-Dawley, rat, plasma, po, 0.68 g/kg, Cmax, rat plasma, oral GU extract 0.68 g/kg, n = 6): 270 ng/mL
MRT last [1]: 1.16 ± 0.01 h
MRT inf [1]: 1.19 ± 0.01 h
Tmax (male, Sprague-Dawley, rat, plasma, po, 0.68 g/kg, Tmax, rat plasma, oral GU extract 0.68 g/kg, n = 6): 0.08 h
half-life (male, Sprague-Dawley, rat, plasma, po, 0.68 g/kg, oral GU extract 0.68 g/kg, n = 6): 4.41 ± 0.59 h
AUC(0-inf) (male, Sprague-Dawley, rat, plasma, po, 2.14 g·kg^−1 (extract), AUC(0–∞), rat plasma, oral LJ + GU extract, n = 6): 200 ± 60 ng·h/mL
MRT last [2]: 2.53 ± 0.56 h
MRT inf [2]: 13.5 ± 11 h
Tmax (male, Sprague-Dawley, rat, plasma, po, 2.14 g·kg^−1 (extract), Tmax, rat plasma, oral LJ + GU extract, n = 6): 0.56 ± 0.56 h
half-life (male, Sprague-Dawley, rat, plasma, po, 2.14 g·kg^−1 (extract), oral LJ + GU extract, n = 6): 12.2 ± 7.3 h
AUC(0-t) (male, Sprague-Dawley, rat, plasma, po, 2.14 g·kg^−1 extract, rat plasma, oral LJ + GU extract, n = 6): 180 ± 60 ng·h/mL
AUC(0-t) [3]: 220 ± 80 ng·h/mL
AUC(0-inf) (male, Sprague-Dawley, rat, plasma, po, 2.43 g/kg, AUC(0–∞), rat plasma, oral AS + GU extract 2.43 g/kg, n = 6): 240 ± 80 ng·h/mL
MRT last [3]: 2.3 ± 0.63 h
MRT inf [3]: 11.1 ± 8.58 h
Tmax (male, Sprague-Dawley, rat, plasma, po, 2.43 g/kg, Tmax, rat plasma, oral AS + GU extract 2.43 g/kg, n = 6): 0.6 ± 0.5 h
half-life (male, Sprague-Dawley, rat, plasma, po, 2.43 g/kg, oral AS + GU extract 2.43 g/kg, n = 6): 9.28 ± 5.92 h
MRT last [4]: 2.48 ± 0.46 h
MRT inf [4]: 12.4 ± 9.87 h
Tmax (male, Sprague-Dawley, rat, plasma, po, 3.38 g/kg extract (6.67 g/kg as herbs), Tmax, rat plasma, oral SN + GU extract, n = 6): 0.42 ± 0.53 h
half-life (male, Sprague-Dawley, rat, plasma, po, 3.38 g/kg extract (6.67 g/kg as herbs), oral SN + GU extract, n = 6): 7.81 ± 5.31 h
AUC(0-t) (male, Sprague-Dawley, rat, plasma, po, 3.38 g·kg^−1 (extract), rat plasma, oral SN + GU extract, n = 6): 180 ± 50 ng·h/mL
AUC(0-inf) (male, Sprague-Dawley, rat, plasma, po, 3.38 g·kg^−1 (extract), AUC(0–∞), rat plasma, oral SN + GU extract, n = 6): 210 ± 50 ng·h/mL
Cmax (male, Sprague-Dawley, rat, plasma, po, 3.38 g·kg^−1 extract, Cmax, rat plasma, oral SN + GU extract, n = 6): 150 ± 70 ng/mL
AUC(0-t) [5]: 220 ± 130 ng·h/mL
AUC(0-inf) (male, Sprague-Dawley, rat, plasma, po, 4.01 g·kg^−1 (extract), AUC(0–∞), rat plasma, oral LJ + AS + GU extract, n = 6): 260 ± 140 ng·h/mL
Cmax (male, Sprague-Dawley, rat, plasma, po, 4.01 g·kg^−1 (extract), Cmax, rat plasma, oral LJ + AS + GU extract, n = 6): 210 ± 170 ng/mL
MRT last [5]: 2.41 ± 0.63 h
MRT inf [5]: 16 ± 11.8 h
Tmax (male, Sprague-Dawley, rat, plasma, po, 4.01 g·kg^−1 (extract), Tmax, rat plasma, oral LJ + AS + GU extract, n = 6): 0.79 ± 0.29 h
half-life (male, Sprague-Dawley, rat, plasma, po, 4.01 g·kg^−1 (extract), oral LJ + AS + GU extract, n = 6): 13.7 ± 4.69 h
AUC(0-t) [6]: 230 ± 160 ng·h/mL
AUC(0-inf) (male, Sprague-Dawley, rat, plasma, po, 4.73 g/kg, AUC(0–∞), rat plasma, oral LJ + SN + GU extract 4.73 g/kg, n = 6): 260 ± 170 ng·h/mL
MRT last [6]: 2.5 ± 0.67 h
MRT inf [6]: 16.3 ± 12.9 h
Tmax (male, Sprague-Dawley, rat, plasma, po, 4.73 g/kg, Tmax, rat plasma, oral LJ + SN + GU extract 4.73 g/kg, n = 6): 0.88 ± 0.31 h
half-life (male, Sprague-Dawley, rat, plasma, po, 4.73 g/kg, oral LJ + SN + GU extract 4.73 g/kg, n = 6): 13.4 ± 5.15 h
AUC(0-inf) (male, Sprague-Dawley, rat, plasma, po, 8.25 g/kg): 340 ± 210 ng·h/mL
AUC(0-t) [7]: 290 ± 210 ng·h/mL
Cmax (male, Sprague-Dawley, rat, plasma, po, 8.25 g/kg, Cmax, rat plasma, oral SYD extract 8.25 g/kg, n = 6): 210 ± 170 ng/mL
MRT last [7]: 2.89 ± 0.92 h
MRT inf [7]: 11.3 ± 7.16 h
Tmax (male, Sprague-Dawley, rat, plasma, po, 8.25 g/kg, Tmax, rat plasma, oral SYD extract 8.25 g/kg, n = 6): 0.88 ± 0.31 h
half-life (male, Sprague-Dawley, rat, plasma, po, 8.25 g/kg, oral SYD extract 8.25 g/kg, n = 6): 13.4 ± 5.59 h
half-life (male, Sprague-Dawley, rat, plasma, po, […], oral SN + AS + GU extract […], n = 6): 11.6 ± 5.01 h
Cmax (rat plasma, oral AS + GU extract 2.43 g/kg, n = 6): 200 ± 130 ng/mL
Cmax (rat plasma, oral LJ + GU extract, n = 6): 140 ± 70 ng/mL
Tmax (rat plasma, oral SN + AS + GU extract […], n = 6): 1.00 ± 0.27 h
